Patent publication US20050042213A1, “Methods and pharmaceutical compositions for modulating heparanase activation and uses thereof” (InSight Biopharmaceuticals Ltd., priority 2003, published 2005)
One block for each compound: values may come before it. The star is where a group is joined. AMC = Cc1cc(=O)oc2cc(N*)ccc12; Cbz = O=C(OCc1ccccc1)*

Key:
pro-heparanase (H60) [1] = target: T1, pro-heparanase (H60) (Homo sapiens, UniProt Q9Y251, K307R); assay: Pro-heparanase activation in a cell-based assay (293 cells, DMB assay)
T1 sequence (Q9Y251 36-543 K307R): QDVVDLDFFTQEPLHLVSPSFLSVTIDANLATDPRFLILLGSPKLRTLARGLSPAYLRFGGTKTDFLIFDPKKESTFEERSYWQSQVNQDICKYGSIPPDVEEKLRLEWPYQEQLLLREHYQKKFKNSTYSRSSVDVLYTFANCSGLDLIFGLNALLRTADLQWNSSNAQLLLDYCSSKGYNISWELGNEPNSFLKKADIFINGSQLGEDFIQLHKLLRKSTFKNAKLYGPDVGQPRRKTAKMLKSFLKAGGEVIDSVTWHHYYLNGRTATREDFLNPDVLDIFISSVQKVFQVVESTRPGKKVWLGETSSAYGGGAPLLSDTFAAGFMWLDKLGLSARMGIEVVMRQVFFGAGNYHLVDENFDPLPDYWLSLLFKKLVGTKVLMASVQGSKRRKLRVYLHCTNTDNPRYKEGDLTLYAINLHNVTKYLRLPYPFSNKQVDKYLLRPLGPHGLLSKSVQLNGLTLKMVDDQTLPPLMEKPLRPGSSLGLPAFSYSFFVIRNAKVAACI

[2] = Heparin binding of compounds (heparin sepharose CL-6B beads); settings: compound at 5 uM
Description: Heparin binding—5 μM of the selected compound was prepared in a solution of PBS pH 7.2 with 0.05% Tween and 5% DMSO. […] Excess water was discarded by filtration using a Multiscreen vacuum manifold (Millipore, Cat No. MAVM 096 00). 200 μl of each compound tested was transferred to three wells of the filter plate—one empty well, one with sepharose CL-6B and one with heparin sepharose CL-6B. Plates were rotated for 2 hrs at 37° C. followed by filtration to a new 96 well clear plate, using a Multiscreen vacuum manifold. The absorbance spectrum of the filtrate in each well was determined using a VERSAmax plate reader (Molecular devices). Percent of heparin binding was calculated from the binding to heparin sepharose CL-6B as compared to the binding of the compound to the control sepharose CL-6B beads.

[3] = target: T2, pro-heparanase transiently expressed in 293 cells (Homo sapiens, UniProt Q9Y251, K307R); assay: Pro-heparanase processing in transiently transfected 293 cells (Western blot); assay type: cell-based
T2 sequence (Q9Y251 36-543 K307R): T1 sequence (Q9Y251 36-543 K307R)
Description: (§1) Western blot analysis—Western blot analysis was performed using rabbit anti-heparanase polyclonal antibodies as described in U.S. Pat. Nos. 6,177,545; 6,531,129; and 6,562,950.
Transient transfections—293 cells (200,000) were plated onto a 6 well tissue culture plate. 24 hrs later, the cells were transfected with 1 μg pSI (Promega) hpa plasmid (U.S. Pat. No. 6,475,763) in 3 μl Fugene reagent that was pre-incubated for 15 min in 100 μl medium without serum. Cells were treated with inhibitors 4 and 17 hrs following transfection.

β-FGF = target: T3, β-FGF (Homo sapiens, UniProt P09038); assay: Elisa assay for binding of β-FGF to heparin; settings: inhibition of β-FGF binding to heparin
T3 construct: purchased Sigma F0291
Description: Elisa assay for determination of binding of β-FGF to heparin—96 well microplates were coated overnight with Heparin-albumin (Lizard) and blocked with 1% BSA in PBS with 0.05% Tween and 0.01% thimerosal for 2 hrs. β-FGF was added to the plates at a concentration of 0.8 ng/ml and incubated for 45 min at 23-25° C. The amount of β-FGF bound to heparin was detected using anti-FGF monoclonal antibody (Sigma Cat. # F6162) at a concentration of 2.5 ng/ml and secondary antibodies Sheep anti-mouse IgG linked to horseradish peroxidase (1:3000). TMB (Pierce Cat. #34021) was used as a substrate for peroxidase.
(§2) The plates were read at 450 nm with a reference wavelength of 630 nm using a VERSAmax plate reader. […] Percent inhibition was calculated as compared with the control reactions pre-incubated with 1% DMSO only.

VEGF = target: T4, VEGF (Homo sapiens, UniProt P15692); assay: Elisa assay for binding of VEGF to heparin; settings: inhibition of VEGF binding to heparin
T4 sequence (P15692 27-191 isoform P15692-4): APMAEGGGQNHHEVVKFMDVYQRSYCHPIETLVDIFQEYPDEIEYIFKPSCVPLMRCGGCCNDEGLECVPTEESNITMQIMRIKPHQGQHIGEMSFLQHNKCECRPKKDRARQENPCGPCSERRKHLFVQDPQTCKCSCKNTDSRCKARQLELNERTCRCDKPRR
Description: Elisa assay for determination of binding of VEGF to heparin—96 well microplates were coated overnight with Heparin-albumin (Lizard) and blocked with 1% BSA in PBS with 0.05% Tween and 0.01% thimerosal for 2 hrs. VEGF was added to the plates at a concentration of 2 ng/ml and incubated for 45 min. at 23-25° C. The amount of VEGF bound to heparin was detected using anti-VEGF monoclonal antibody (Sigma Cat. # V4758) at a concentration of 0.26 μg/ml and secondary antibodies Sheep anti-mouse IgG linked to horseradish peroxidase (1:2000). TMB (Pierce Cat. #34021) was used as a substrate for peroxidase.
as §2

antithrombin = antithrombin (Homo sapiens, UniProt P01008); assay: Elisa assay for binding of antithrombin to heparin; settings: inhibition of antithrombin binding to heparin; NI = no inhibition; read-out: IC50 ATIII
Description: Elisa assay for determination of binding of antithrombin to heparin—96 well microplates were coated overnight with Heparin-albumin (Lizard) and blocked with I % BSA in PBS with 0.05% Tween and 0.01% thimerosal for 2 hrs. […] was added to the plates at a concentration of 0.5 μg/ml and incubated overnight at 4° C. The amount of antithrombin bound to heparin was detected using an anti-antithrombin monoclonal antibody (Sigma Cat. # A5816) diluted to 1:200, and secondary antibodies (anti-mouse anti-Fc? conjugated to horseradish peroxidase, Jackson cat. # 115-035-008, 1:100). TMB (Pierce Cat. #34021) was used as a substrate for peroxidase.
The plates were read at 450 nm with a reference wavelength of 630 nm using a VERSAmax plate reader. […] Percent inhibition was calculated as compared to the control reactions pre-incubated with 1% DMSO only.

heparanase (H53) = target: T5, heparanase (H53) (Homo sapiens, UniProt Q9Y251, K307R); assay: Heparanase activity inhibition (H53), DMB assay; assay type: biochemical; settings: heparanase activity inhibition (H53); NI = no inhibition
T5 sequence (Q9Y251 158-543 K307R limits assumed): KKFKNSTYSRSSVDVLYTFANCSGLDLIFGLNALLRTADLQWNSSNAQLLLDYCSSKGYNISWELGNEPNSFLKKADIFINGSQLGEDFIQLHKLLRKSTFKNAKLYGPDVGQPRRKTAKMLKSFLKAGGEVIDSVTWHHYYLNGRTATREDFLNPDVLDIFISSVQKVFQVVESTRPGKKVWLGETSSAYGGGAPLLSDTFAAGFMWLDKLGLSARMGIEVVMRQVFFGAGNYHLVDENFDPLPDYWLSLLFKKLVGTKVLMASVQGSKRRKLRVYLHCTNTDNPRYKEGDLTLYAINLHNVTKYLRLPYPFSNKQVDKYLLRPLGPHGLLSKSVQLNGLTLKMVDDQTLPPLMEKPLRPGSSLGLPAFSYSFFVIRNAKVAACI
T5 sequence (Q9Y251 36-109 limits assumed): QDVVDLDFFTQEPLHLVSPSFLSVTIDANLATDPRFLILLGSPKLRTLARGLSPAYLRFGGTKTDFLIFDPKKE
Description: At the end of the incubation, the cells were lysed by three consecutive cycles of freezing and thawing in a −80° C. Freezer and a 37° C. shaker. Formation of active heparanase was detected by determination of heparanase activity in DMB assay as described in patent application U.S. Pat. No. 6,190,875B.

pro-heparanase (H60) [4] = target: T1, pro-heparanase (H60); assay: Processing and activation of pro-heparanase in vitro with cathepsin B and D in the presence of heparin (Western blot, DMB assay); assay type: biochemical; settings: cathepsin B and/or cathepsin D, heparin-sepharose
Description: as §1
Following a 17 hours incubation at room temperature, reaction products were filtered to a new plate and quantified using di-methyl-methylene-blue, as described in U.S. Pat. No. 6,190,875.
Assay mixtures contained heparin (Sigma, H3393) or heparinomimetic molecules ethane-1,2-disulfonic acid (Sigma, E2269) and heparin disaccharide IVA (Sigma, H0895) for western blot analysis or heparin sepharose beads for activation assays, in 200 mM acetate buffer, pH 5.5, 4 mM EDTA and 8 mM DTT, with either Cathepsin B, Cathepsin D or both. Following a 17 hours of incubation at room temperature, reaction products were examined by western blot analysis or filtered to a new plate and quantified using di-methyl-methylene-blue, as described in U.S. Pat. No. 6,190,875 for activation assay.

pro-heparanase (H60) [5] = assay: Processing and activation of pro-heparanase in vitro with cathepsin G; assay type: biochemical, human; settings: in the presence of heparin
Description: The assays were performed in assay mixtures containing heparin for western blot analysis or heparin sepharose beads for activation assays, in PBS, 365 mM NaCl, with 1 μ/ml cathepsin G (Sigma, C4428). Following a 17 hours incubation at room temperature, reaction products were examined in western blot analysis or filtered to a new plate and quantified using di-methyl-methylene-blue, as described in U.S. Pat. No. 6,190,875 for activation assay.

[6] = target: T6, Elastase, human neutrophil (Homo sapiens, UniProt P08246); assay: Determination of elastase activity; assay type: biochemical; settings: Table 13
T6 construct: Elastase, human neutrophil (Calbiochem cat.# 324681); purchased Calbiochem 324681; host or cells: human neutrophils
T6 sequence (P08246 30-267): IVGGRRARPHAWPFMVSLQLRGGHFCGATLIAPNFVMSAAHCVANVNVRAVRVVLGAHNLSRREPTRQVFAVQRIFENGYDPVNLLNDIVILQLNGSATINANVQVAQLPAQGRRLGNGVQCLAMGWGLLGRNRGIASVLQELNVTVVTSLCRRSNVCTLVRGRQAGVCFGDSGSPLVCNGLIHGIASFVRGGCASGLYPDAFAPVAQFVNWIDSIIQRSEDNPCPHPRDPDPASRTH

cathepsin G = target: T7, cathepsin G (Homo sapiens, UniProt P08311); assay: Cathepsin G activity inhibition; assay type: biochemical; settings: data not shown
T7 sequence (P08311 21-244): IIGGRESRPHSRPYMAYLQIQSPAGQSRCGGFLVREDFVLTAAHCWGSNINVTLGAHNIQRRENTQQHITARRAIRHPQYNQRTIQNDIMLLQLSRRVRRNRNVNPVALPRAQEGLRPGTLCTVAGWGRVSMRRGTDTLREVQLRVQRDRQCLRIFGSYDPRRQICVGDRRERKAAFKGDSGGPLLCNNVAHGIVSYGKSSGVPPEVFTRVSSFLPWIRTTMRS

293 cell extract = assay: Cleavage of Z-Pro-Lys-Lys-Glu-AMC (Peptide 1) by 293 cell extract and its inhibition by protease inhibitors; assay type: biochemical, human; settings: different pHs, pH range 4.5-7.5
Description: Following a 20 minutes incubation at 37° C., fluorescence released due to proteolytic activity was determined using a BMG POLARstar™ Galaxy fluorometer: excitation at 390 nm and emission at 460 nm.

Cathepsin B = Cathepsin B (Homo sapiens, UniProt P07858); assay: Proteolytic activity assay: cleavage of fluorogenic peptides by cathepsin B; assay type: biochemical; settings: substrate cleaved by Cathepsin B
Description: (§3) Assay was done in a reaction mixture containing 200 mM acetate buffer, pH 5.5, 4 mM EDTA and 8 mM DTT. Following a 20 minutes incubation at 37° C., fluorescence released due to proteolytic activity was determined using a BMG POLARstar™ Galaxy fluorometer: excitation at 390 nm and emission at 460 nm.

Cathepsin L = target: T8, Cathepsin L (Homo sapiens, UniProt P07711); assay: Proteolytic activity assay: cleavage of fluorogenic peptides by cathepsin L; assay type: biochemical; settings: substrate cleaved by Cathepsin L
T8 construct: purchased Calbiochem
Description: as §3

T8 sequence (P07711 114-333, species assumed): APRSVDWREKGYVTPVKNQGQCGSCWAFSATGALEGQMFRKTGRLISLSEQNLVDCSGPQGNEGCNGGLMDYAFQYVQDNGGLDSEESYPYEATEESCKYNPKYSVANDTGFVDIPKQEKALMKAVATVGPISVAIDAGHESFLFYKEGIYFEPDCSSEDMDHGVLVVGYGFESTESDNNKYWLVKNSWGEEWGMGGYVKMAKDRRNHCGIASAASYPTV
T3 sequence (P09038 143-288): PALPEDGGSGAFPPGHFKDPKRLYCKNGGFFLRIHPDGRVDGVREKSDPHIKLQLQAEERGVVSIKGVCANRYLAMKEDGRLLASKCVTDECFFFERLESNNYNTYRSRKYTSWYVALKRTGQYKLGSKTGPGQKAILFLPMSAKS
Chain of antithrombin (P01008 33-464): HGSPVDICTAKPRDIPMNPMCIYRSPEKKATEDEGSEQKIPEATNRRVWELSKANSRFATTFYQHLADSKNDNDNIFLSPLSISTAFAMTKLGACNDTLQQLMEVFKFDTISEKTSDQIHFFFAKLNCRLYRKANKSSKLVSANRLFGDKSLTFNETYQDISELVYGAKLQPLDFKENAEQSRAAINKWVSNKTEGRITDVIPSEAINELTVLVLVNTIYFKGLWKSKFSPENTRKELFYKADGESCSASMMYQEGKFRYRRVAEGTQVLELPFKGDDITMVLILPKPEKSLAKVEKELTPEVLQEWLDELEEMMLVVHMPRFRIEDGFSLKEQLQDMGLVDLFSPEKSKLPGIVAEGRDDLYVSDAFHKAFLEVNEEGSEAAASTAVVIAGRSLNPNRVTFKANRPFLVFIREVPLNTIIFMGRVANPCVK

IC50 (pro-heparanase (H60) [1]; inhibition of pro-heparanase activation, Table 11, heparin-binding compounds): 570 nM
Binding to heparin (5 uM) [2]: 70%
pro-heparanase expression [3]: did not affect pro-heparanase expression
IC50 (β-FGF): 1300 nM
IC50 (VEGF): 2400 nM
IC50 (antithrombin): 18 µM
IC50 (heparanase (H53)): 20 µM
Compound: Cc1cc(N(C)C)cc2[s+]c3cc(N(C)C)cc(C)c3nc12 [Compound 112]
pro-heparanase processing [3]: completely inhibited pro-heparanase processing

activation of pro-heparanase in vitro (heparanase activity) (pro-heparanase (H60) [4]): not by cathepsin B
IC50 (pro-heparanase (H60) [1]; inhibition of pro-heparanase (H60) activation, Table 13 serine protease inhibitors): 500 nM
IC50 [6]: 13 µM
inhibition of the activity of cathepsin G (cathepsin G): inhibit the activity of cathepsin G
Compound: O=C(Nc1ccc(Oc2cccc(Oc3ccc(NC(=O)c4ccncc4)cc3)c2)cc1)c1ccncc1 [Compound 128]
inhibition of pro-heparanase activation in-vitro by cathepsin G (pro-heparanase (H60) [5]): inhibit pro-heparanase activation in-vitro by cathepsin G

Compound: Z-Pro-Lys-Lys-Glu-AMC (Cbz-PKKE-{AMC}; SMILES Cc1cc(=O)oc2cc(NC(=O)[C@H](CCC(=O)O)NC(=O)[C@H](CCCCN)NC(=O)[C@H](CCCCN)NC(=O)[C@@H]3CCCN3C(=O)OCc3ccccc3)ccc12) [Peptide 1]
cleavage by 293 cell extract (293 cell extract): highest at pH 5.5-6.5
Activity (δfluorescence) (Cathepsin B): 8926
Activity (δfluorescence) (Cathepsin L): 0
